Measured values from patent US20240101551A1, “CRYSTAL FORM AND SALT FORM OF BROMINE DOMAIN PROTEIN INHIBITOR AND PREPARATION METHOD THEREFOR” (CHIA TAI TIANQING PHARMACEUTICAL GROUP CO., LTD., priority 2020, published 2024).
Values joined by “and” are separate entries in the source; they are usually repeats but may differ in a detail not shown here. Identical values can stand only once.

Experiments:
Type in all cases: physicochemical
[1] = Study on stability of the crystal form I under influencing factors (Experimental Example 2)
Experimental: In order to evaluate the solid stability of the crystal form I of the present application, the stability of the crystal form I under influencing factors (high temperature, high humidity and light) was investigated. The crystal form I was stored under the high temperature condition (40° C., open (weighing bottle)), the high temperature condition (60° C., open (weighing bottle)), the high humidity condition (room temperature, 75% RH, open (weighing bottle)) and the high humidity condition (room temperature, 92.5% RH, open (weighing bottle) and packaged) for 5 days, 10 days and 30 days, and under the ICH light condition (5500 Lux, 0.9 w/m^2, open (weighing bottle) and packaged) for 5 days and 10 days. The inner packaging material of the packaged sample was a double-layer low-density polyethylene bag, and the outer packaging material is a polyester/aluminum/polyethylene composite bag for medicine packaging. The samples after the storage were determined for properties, related substances (HPLC), crystal form (XRD), water content and content to investigate the influence of high temperature, high humidity and light conditions on the product. The results are shown in Table 13 (“^#” indicates the ICH condition).

[2] = Study on accelerated stability and long-term stability of the crystal form I
Experimental: The crystal form I was placed under the accelerated condition (40±2° C., 75%±5% RH, and packaged) for 1, 2, 3 and 6 months, and under the long-term condition (25±2° C., 65%±5% RH, and packaged) for 3, 6, 9, 12, 18, 24 and 36 months to investigate its acceleration and long-term stability. The inner packaging material of the packaged sample was a double-layer low-density polyethylene bag, and the outer packaging material is a polyester/aluminum/polyethylene composite bag for medicine packaging. The samples after the storage were determined for properties, related substances (HPLC), crystal form (XRD), water content and content to investigate the stability of the product.

[3] = Particle size distribution test after jet milling (light scattering); conditions: for X90 Mean: mean of 3 experiments; for X90: single experiments 1-3
Experimental: The particle size distribution X90 described herein is determined by a light scattering method (Method 3 of Determination of Particle Size and Distribution of General Chapter 0982, Chinese Pharmacopoeia, Volume IV, 2020 Edition).
After jet milling, the crystal form I was tested for the particle size distribution by referring to Method 3 (a light scattering method) of Determination of Particle Size and Distribution of General Chapter 0982, Chinese Pharmacopoeia, Volume IV, 2020 Edition, with the specific steps as follows: 10 mg of the sample was weighed and placed in a laser scattering particle size distribution analyzer for testing (trigger conditions: 10 s, 1%; dispersion pressure: 2.0 bar).

[4] = Study on accelerated stability and long-term stability of the crystal form I; conditions: long-term, 25° C. ± 2° C., 60% ± 5% RH, packaged
[5] = 75% RH, room temperature, open, 5 days
[6] = 75% RH, room temperature, open, 10 days
[7] = 75% RH, room temperature, open, 30 days
[8] = 92.5% RH, room temperature, open, 5 days
[9] = 92.5% RH, room temperature, open, 10 days
[10] = 92.5% RH, room temperature, open, 30 days
[11] = Light (ICH, 5500 Lux), open, 5 days
[12] = Light (ICH, 5500 Lux), open, 10 days
[13] = accelerated, 40° C. ± 2° C., 75% ± 5% RH, packaged, 1 month
[14] = accelerated, 40° C. ± 2° C., 75% ± 5% RH, packaged, 2 months
[15] = accelerated, 40° C. ± 2° C., 75% ± 5% RH, packaged, 3 months
[16] = accelerated, 40° C. ± 2° C., 75% ± 5% RH, packaged, 6 months
[17] = long-term, 25° C. ± 2° C., 60% ± 5% RH, packaged, 6 months

- Crystal form change ([1]; 40° C., open, 5 days): Unchanged
- Impurity content ([1]; 40° C., open, 5 days): 0.06%
- Water content ([1]; 40° C., open, 5 days): 0.02%
- Crystal form change ([1]; 40° C., open, 10 days): Unchanged
- Impurity content ([1]; 40° C., open, 10 days): 0.08%
- Water content ([1]; 40° C., open, 10 days): 0.01%
- Crystal form change ([1]; 40° C., open, 30 days): Unchanged
- Impurity content ([1]; 40° C., open, 30 days): 0.08%
- Water content ([1]; 40° C., open, 30 days): 0.02%
- Crystal form change ([1]; 60° C., open, 5 days): Unchanged
- Impurity content ([1]; 60° C., open, 5 days): 0.07%
- Water content ([1]; 60° C., open, 5 days): 0.01%
- Crystal form change ([1]; 60° C., open, 10 days): Unchanged
- Impurity content ([1]; 60° C., open, 10 days): 0.08%
- Water content ([1]; 60° C., open, 10 days): 0.01%
- Crystal form change ([1]; 60° C., open, 30 days): Unchanged
- Impurity content ([1]; 60° C., open, 30 days): 0.09%
- Water content ([1]; 60° C., open, 30 days): 0.02%
- Crystal form change [1, 5]: Unchanged
- Impurity content [1, 5]: 0.06%
- Water content [1, 5]: 0.02%
- Crystal form change [1, 6]: Unchanged
- Impurity content [1, 6]: 0.08%
- Water content [1, 6]: 0.03%
- Crystal form change [1, 7]: Unchanged
- Impurity content [1, 7]: 0.08%
- Water content [1, 7]: 0.04%
- Crystal form change ([1]; 92.5% RH, packaged, 5 days): Unchanged
- Impurity content ([1]; 92.5% RH, packaged, 5 days): 0.06%
- Water content ([1]; 92.5% RH, packaged, 5 days): 0.02%
- Crystal form change ([1]; 92.5% RH, packaged, 10 days): Unchanged
- Impurity content ([1]; 92.5% RH, packaged, 10 days): 0.08%
- Water content ([1]; 92.5% RH, packaged, 10 days): 0.01%
- Crystal form change ([1]; 92.5% RH, packaged, 30 days): Unchanged
- Impurity content ([1]; 92.5% RH, packaged, 30 days): 0.08%
- Water content ([1]; 92.5% RH, packaged, 30 days): 0.03%
- Crystal form change [1, 8]: Unchanged
- Impurity content [1, 8]: 0.06%
- Water content [1, 8]: 0.03%
- Crystal form change [1, 9]: Unchanged
- Impurity content [1, 9]: 0.08%
- Water content [1, 9]: 0.03%
- Crystal form change [1, 10]: Unchanged
- Impurity content [1, 10]: 0.08%
- Water content [1, 10]: 0.06%
- Crystal form change ([1]; Light (ICH), packaged, 5 days): Unchanged
- Impurity content ([1]; Light (ICH), packaged, 5 days): 0.06%
- Water content ([1]; Light (ICH), packaged, 5 days): 0.02%
- Crystal form change ([1]; Light (ICH), packaged, 10 days): Unchanged
- Impurity content ([1]; Light (ICH), packaged, 10 days): 0.08%
- Water content ([1]; Light (ICH), packaged, 10 days): 0.02%
- Crystal form change [1, 11]: Unchanged
- Impurity content [1, 11]: 0.06%
- Water content [1, 11]: 0.01%
- Crystal form change [1, 12]: Unchanged
- Impurity content [1, 12]: 0.08%
- Water content [1, 12]: 0.02%
- Impurity content ([1]; starting crystal form I): 0.05%
- Water content ([1]; starting crystal form I): 0.02%
- Crystal form change [2, 13]: Unchanged
- Impurity content [2, 13]: 0.08%
- Water content [2, 13]: 0.03%
- Crystal form change [2, 14]: Unchanged
- Impurity content [2, 14]: 0.08%
- Water content [2, 14]: 0.03%
- Crystal form change [2, 15]: Unchanged
- Impurity content [2, 15]: 0.08%
- Water content [2, 15]: 0.03%
- Crystal form change [2, 16]: Unchanged
- Impurity content [2, 16]: 0.08%
- Water content [2, 16]: 0.03%
- Stability (conclusion) ([2]; influencing factors, accelerated and long-term conditions): good stability
- Crystal form change ([2]; long-term, 25° C. ± 2° C., 60% ± 5% RH, packaged, 3 months): Unchanged
- Crystal form change [2, 17]: Unchanged
- Impurity content [2, 17]: 0.08%
- Impurity content ([2]; starting crystal form I): 0.05%
- Water content ([2]; starting crystal form I): 0.02%
- X90 Mean ([3]; milling pressure 0.1 MPa): 11.50 μm
- X90 ([3]; milling pressure 0.1 MPa): 11.54 μm and 11.46 μm and 11.50 μm
- X90 Mean ([3]; milling pressure 0.3 MPa): 5.82 μm
- X90 ([3]; milling pressure 0.3 MPa): 5.78 μm and 6.02 μm and 5.67 μm
- Impurity content ([4]; 3 months): 0.08%
- Water content ([4]; 3 months): 0.03%
- Water content ([4]; 6 months): 0.04%
SMILES: Cn1cc(-c2nc(N=S(C)(C)=O)ccc2Oc2ccc(F)cc2F)c2cc[nH]c2c1=O [crystal form I]
